Consider one compound from patent US20130012473A1, “COMBINED USE OF PHOSPHOLIPID AND SULFATE GROUPS-CARRYING POLYSACCHARIDES FOR INHIBITING METASTATIC SPREAD” (KTB TUMORFORSCHUNGSGESELLSCHAFT MBH, priority 2010, published 2013).

The subject of test [1] is B16.F10 cells. The test can be described thus: SACED cell migration assay on fibronectin. Type of test: cell-based, mouse. To be noted: 450 μM LysoPC, fibronectin layers. The method, then:
Quantification of cell motility: Cell migration of B16.F10 cells cultivated on fibronectin (Sigma-Aldrich Chemie) covered dishes was determined with or without LysoPC. […] (Nikon, Dusseldorf, Germany) and an incubation chamber for constant temperature, applying NIS Elements AR 2.30 software and a camera (COOL-1300I; Vosskuhler GmbH, Germany)
Lamella dynamics and cell migration velocity were analyzed by the computer-assisted stroboscopic analysis of cell dynamics (SACED). At least 15 individual cells, incubated with or without LysoPC, were monitored over a period of 10 min by capturing digital images every 2 s. Subsequently, eight areas of interest were marked on each image by lines that crossed the cell lamella. The resulting 1 pixel wide areas were cut and lined up in time space plots that allowed the quantification of relevant motility data (Hinz, B. et al., Exp. Cell. Res. 251:234-243 (1999)).

The test system of test [2] is B16.F10 ELN melanoma cells. The test can be described thus: Experimental lung metastasis model, luciferase assay of lung homogenates. It is filed as in vivo, mouse. The method, then: Generation of luciferase expressing B16.F10 melanoma cells: For sensitive detection of metastases in vivo in lung and other murine tissues, stably luciferase-transduced B16.F10 ELN melanoma cells were established as recently described (Bornmann, C. et al., Cancer Chemother. Pharmacol. 61:395-405 (2008)).
Animal experiments: Lung metastases were induced by injecting 3×10^5 cells in 100 μl PBS into the tail vein of male C57BI/6N mice (Charles River Laboratories, Sulzfeld, Germany) (Ludwig, R. J. et al., Cancer Res. 64:2743-2750 (2004)). […] In a further experiment, animals were pre-treated 30 min before cell injection with 50 IU (Ludwig, R. J. et al., Cancer Res. 64:2743-2750 (2004)) unfractionated heparin (Ratiopharm GmbH, Ulm, Germany), followed by injection of either long-term 450 μM LysoPC treated or DMEM control medium cultured B16.F10 ELN cells. Experiments were terminated on day 14 (see establishment of the model—FIG. 9). Tissues were removed and stored as snap frozen samples. Metastatic lesions were quantified by homogenizing the tissues in luciferase lysis buffer and measuring in a luciferase assay (Promega E1501) as described (Jantscheff, P. et al., Establishment of human orthotopic LNCaP prostate cancer xenograft metastases model: Effect of Gemcitabine and GemLip. Clin. Exp. Metastasis: in press (2009); Jantscheff, P. et al., Prostate 69:1151-1163 (2009)).
Example 4: Inhibition of in vivo metastasis of B16.F10 ELN cells pretreated with LysoPC. […] For a sensitive quantitative analysis of metastatic spread in the lung, luciferase-transduced B16.F10 ELN cells were used. […]
To establish the mice metastasis model with luciferase-transduced B16.F10 melanoma cells, metastatic lesions in the lung and other tissues (those strongly supplied with blood, spleen, liver, kidney) were investigated at different time points (6 h, 24 h, 7 d, 14 d, and 19 d). Sensitivity of in vitro detection of metastatic lesions was determined as recently described (Jantscheff, P. et al., Prostate 69:1151-1163 (2009)) and limited corresponding to the detection of about 1000 cells in 1 ml tissue lysate (data not shown). Three to four animals were analyzed at each time point and metastatic lesions in lung and other tissues were determined by in vitro luciferase assay in tissue homogenates (see Material and Methods). As shown in A) significant metastasis could be detected first at day 7 and reached a plateau at day 14 in the lung. […] Therefore, in future experiments the animals were analyzed at day 14 and the experiments were limited to this time frame. Using the same scale, no metastatic lesions were detected in the other organs. […]

The subject of test [3] is VLA-4 adhesion of B16.F10 cells to VCAM-1. The test can be described thus: Parallel plate flow chamber assay, cell adhesion to immobilized VCAM-1. Type of test: cell-based, mouse. As for the experimental part:
Flow chamber assay: The interaction of B16.F10 cells with VCAM-1 Fc chimera under physiological flow conditions was analyzed on glass slides coated with VCAM-1 Fc chimera in a parallel plate flow chamber, as described in detail in our previous investigations (Fritzsche, J. et al., Thromb. Haemost. 100:1166-1175 (2008)).
Example 2: Impact of LysoPC treatment of B16.F10 cells on adhesion receptor activity in vitro. In order to investigate the concentration and time dependent effects of LysoPC on the receptor mediated cell binding ability, VLA-4 adhesion of B16.F10 cells to a support-fixed VCAM-1 layer was investigated (FIG. 2A). […] The LysoPC effects on adhesion became amplified by repeated LysoPC feeding.

As for `CCCCCCCCCCCCCCCCC(=O)OC[C@@H](O)COP(=O)([O-])OCC[N+](C)(C)C` [LysoPC], the “lamellipodia dynamics (frequencies of protrusion and retraction)” value in test [1] is “attenuated dynamics (p<0.05) of lamellipodia protrusion and retraction”. Also, the lamellipodia retraction velocity entry in test [1] (p<0.05) is on record as “slower lamellipodia retraction velocity”. Besides, in test [2] (B16.F10 ELN cells treated ex vivo six times with 450 μM LysoPC (long-term), injected i.v., lung luciferase assay day 14), the “metastatic lesions in the lung, mean percentage relative to untreated controls (100%)” value was found to be 51.7%. Also, the “lung luciferase activity compared to control” value in test [2] (cells treated twice with 300 μM LysoPC (short-term), day 14) is reported as “slightly but insignificantly enhanced luciferase activity”. Besides, the “macroscopically visible metastatic foci on lung surface” value in test [2] (long-term 450 μM LysoPC group, day 14) was “clearly smaller numbers of metastatic foci”; in test [2] (short-term 300 μM LysoPC group vs control, day 14), “no differences were seen between the control and the short-term group”. Moreover, the “cell binding to support-fixed VCAM-1” value in test [3] (repeated addition of 300 μM LysoPC (13 days)) is given as “no effect in reducing the VLA-4 binding”; in test [3] (single incubation with 300 μM LysoPC for 72 h), “did not mediate significant binding decrease”; in test [3] (single incubation with 450 μM LysoPC for 72 h before VLA-4 activation), “significantly impaired the cell binding”; in test [3] (treated six times with 450 μM LysoPC (13 days)), “complete binding inhibition”.
